US20250338846A1, “COMPOSITIONS HAVING PESTICIDAL UTILITY AND PROCESSES RELATED THERETO” (CORTEVA AGRISCIENCE, LLC, priority 2022, published 2025)
Like-named read-outs stand apart in the source and are kept apart here.

What was measured:
[1] = tested on: Neotropical Brown Stink Bug (Euschistus heros, EUSCHE); experiment: whole plant or invertebrate; assay type: in vivo
Method: X=No. of live nymphs on solvent check and Y=No. of live nymphs on treated bean segments. In Table B4 the “Expected % Control” was calculated using the method described in Colby S. R., Weeds, 1967, 15, 20-22. Bioassay 5: Neotropical Brown Stink Bug (Euschistus heros, EUSCHE) (“BSB”).
Stock solutions were prepared with Formula One as well as for each of the active ingredients individually. Test solutions were prepared from the stock solutions. Test solutions were prepared containing Formula One, the individual active ingredients, and mixtures of Formula One with each of the active ingredients. The test solution for Formula One was prepared by adding 500 μL of the stock solution to a 25 mL glass vial, then adding 500 μL of acetone, followed by the addition of 9 mL water with 0.025% Tween®) 20 to create a 0.04% (w/v) solution. The individual active ingredients were prepared by adding 500 μL of stock solution to a 25 mL glass vial, then adding 500 μL of acetone, followed by the addition of 9 mL water with 0.025% Tween®) 20 to create a 0.005% (w/v) solution. The test solutions containing mixtures of Formula One and the individual active ingredients were prepared by adding 500 μL of the active ingredient stock solution to a 25 mL glass vial, followed by 500 μL of the Formula One stock solution, then by the addition of 9 mL water with 0.025% Tween®) 20 to create a test solution containing 0.04% (w/v) Formula One and 0.005% (w/v) of the active ingredient. Each test solution was serially diluted to create desired doses of test solutions (0.01% (w/v), 0.0025% (w/v), 0.000625% (w/v), 0.000156% (w/v), and 0.000039% (w/v)). In test solutions containing mixtures of Formula One and the active ingredients, the active ingredients were diluted as described above, but the Concentration of Formula One was held constant (0.04% (w/v)).
The test solutions that were tested against BSB were similar to those described above for WTPB. Fresh green beans were cut into segments approximately 1.5 inches long. Four bean segments were added to each test solution and soaked for approximately 15 minutes. After soaking, a single bean fragment was removed and placed into a single well of a 32-well rearing tray (Frontier Agricultural Sciences™), on top of a round filter paper disc. A reference treatment (solvent check) was treated with the diluent only. Each treatment was replicated four times and the test treatments were held at approximately 26° C. and ambient relative humidity (RH) prior to grading. Bean segments were allowed to air dry for ˜30 minutes. Three BSB nymphs were added to and contained in each well with a clear perforated adhesive lid. The total number of living BSB nymphs was recorded 3 days after application. Scoring was based off the total number of living nymphs out of all four replicates. Percent control was measured using Abbott's correction formula (W. S. Abbott, J. Econ. Entomol. 18 (1925), pp. 265-267) as follows:
where X=No. of live nymphs on solvent check and Y=No. of live nymphs on treated bean segments. In Table B5 the “Expected % Control” was calculated using the method described in Colby S. R., Weeds, 1967, 15, 20-22. Bioassay 6: Beet Armyworm (Spodoptera exigua, LAPHEG) (BAW), and Diamondback Moth (Plutella xylostella, PLUTMA) (DBM).

[2] = tested on: Western Flower Thrips (Frankliniella occidentalis, FRANOC); experiment: Bioassay 3: Western Flower Thrips, cotton leaf disc dip, live WFT counted 3 days after treatment; assay type: in vivo; settings: for pest or weed control at 7.8e-05 % strength: read-out: Average % Control AI
How it was run: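 Cotton leaf discs were dipped in acetone/water solutions with 0.025% Tween 20, at 0.005% to 0.0000195% (w/v) for single actives; mixtures held Formula One constant at 0.04% (w/v). Discs were air dried, infested with 5 nymphs aged 9-10 days, and held at approximately 26° C. Live thrips were counted at 3 days, with Abbott-corrected control against solvent checks.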

[3] = Euschistus heros, 72 h, AI alone 0.000156 % w/v, read-out: Average % Control AI
[4] = Frankliniella occidentalis, foliar, 72 h, AI alone 0.0003125 % w/v
[5] = Euschistus heros, 72 h, AI alone 0.000625 % w/v

Cc1c(COC(=O)[C@@H]2[C@H](/C=C(\Cl)C(F)(F)F)C2(C)C)cccc1-c1ccccc1 (racemic) [Bifenthrin]
pest or weed control at 0.000156 % strength [1, 3]: 30%

CC1(C)[C@H](C(=O)O[C@H](C#N)c2cccc(Oc3ccccc3)c2)[C@@H]1/C=C(\Cl)C(F)(F)F (racemic) [Lambda Cyhalothrin]
pest or weed control at 0.0003125 % strength [2, 4]: 7%
pest or weed control at 0.000625 % strength [1, 5]: 8%

COP(=O)(NC(C)=O)SC (stereo not drawn) [Acephate]
pest or weed control at 7.8e-05 % strength ([2]; Frankliniella occidentalis, foliar, 72 h): 5%
pest or weed control at 0.0025 % strength ([1]; Euschistus heros, 72 h, read-out: Average % Control AI): 0%

C/C(=N\C#N)N(C)Cc1ccc(Cl)nc1 [Acetamiprid]
pest or weed control at 0.0003125 % strength [2, 4]: 13%

CC[S+]([O-])c1c(C#N)nn(-c2c(Cl)cc(C(F)(F)F)cc2Cl)c1N (stereo not drawn) [Ethiprole]
pest or weed control at 0.005 % strength ([2]; Frankliniella occidentalis, foliar, 72 h, AI alone 0.005 % w/v): 0%
pest or weed control at 3.91e-05 % strength ([1]; Euschistus heros, 72 h, AI alone 0.0000391 % w/v): 0%

CON=CNC(=O)c1ccc(C2=NOC(c3cc(Cl)cc(Cl)c3)(C(F)(F)F)C2)cc1C (stereo not drawn) [Fluxametamide]
Average % Control AI ([2]; AI alone 0.0003125 % w/v): 67%
Average % Control AI ([1]; AI alone 0.000625 % w/v): 17%

CCN(C(=O)CCS(C)(=O)=O)c1sc(-c2cccnc2)nc1Cl [Formula F1, N-(4-chloro-2-(pyridin-3-yl)thiazol-5-yl)-N-ethyl-3-(methylsulfonyl)propanamide]
Average % Control F1 ([1]; F1 alone 0.04 % w/v): 0%

O=[N+]([O-])NC1=NCCN1Cc1ccc(Cl)nc1 [Imidacloprid]
pest or weed control at 0.0003125 % strength [2, 4]: 0%
pest or weed control at 0.000625 % strength [1, 5]: 17%

CN1COCN(Cc2cnc(Cl)s2)/C1=N\[N+](=O)[O-] [Thiamethoxam]
pest or weed control at 7.8e-05 % strength ([2]; Frankliniella occidentalis, foliar, 72 h, AI alone 0.000078 % w/v): 7%
pest or weed control at 0.000156 % strength [1, 3]: 17%

Abamectin
Average % Control AI ([1]; AI alone 0.000625 % w/v): 17%

Emamectin Benzoate
Average % Control AI ([2]; AI alone 0.005 % w/v): 38%
Average % Control AI ([1]; AI alone 0.000156 % w/v): 24%
